In ChEMBL document CHEMBL1144599, “In vitro antimalarial activity of hyperforin, a prenylated acylphloroglucinol. A structure-activity study” (Bioorg Med Chem Lett, 2007):
Structures can show the parent of a compound that is named as a salt.

How the values were obtained:
[1] = system: Plasmodium falciparum; assay: Antiplasmodial activity after 48 hrs against Plasmodium falciparum K1 in human erythrocytes; type: functional, organism-based
[2] = system: L6; assay: Cytotoxicity against rat L6 cells after 72 hrs; type: cell-based
[3] = Plasmodium falciparum, K1, 48 h

Compound | IC50 [1, 3] [µM] | IC50 ([2]; Rattus norvegicus, L6, 72 h) [µM] | IC50 [1] [µM] | IC50 ([2]; l6) [µM]
COC1=C(CC=C(C)C)C(=O)[C@@]2(C(=O)C(C)C)C(=O)[C@]1(CC=C(C)C)C[C@H](CC=C(C)C)[C@@]2(C)CCC=C(C)C | 7.8 |  |  | 
CC(C)=CCC[C@]1(C)[C@@H](CC=C(C)C)C[C@]2(CC=C(C)C)C(=O)C(C)(CC=C(C)C)C(=O)[C@@]1(C(=O)C(C)C)C2=O (stereo not given in full) | > 27 |  |  | 
CC(C)=CCC[C@]1(C)[C@@H](CC=C(C)C)C[C@]2(CC=C(C)C)C(=O)[C@@](O)(CC=C(C)C)C(=O)[C@@]1(C(=O)C(C)C)C2=O | 0.6 | 19.7 |  | 
CC(C)=CCC[C@]1(C)[C@@H](CC=C(C)C)C[C@]2(CC=C(C)C)C(=O)C(Cl)(CC=C(C)C)C(=O)[C@@]1(C(=O)C(C)C)C2=O (stereo not given in full) | 6.7 |  |  | 
CC(C)=C/C=C1/OC(=O)[C@@]2(CC=C(C)C)C[C@H](CC=C(C)C)[C@@](C)(CCC=C(C)C)[C@H](C(=O)C(C)C)C(=O)[C@@]12O | 3.8 | 36 |  | 
CC(=O)C1=C(O)C=C2Oc3c(C(C)=O)c(O)c(C)c(O)c3C2(C)C1=O (stereo not given) | 16.1 |  |  | 
CC(C)=CCC[C@]1(C)[C@@H](CC=C(C)C)C[C@]2(CC=C(C)C)C(=O)C(CC=C(C)C)=C(O)[C@@]1(C(=O)C(C)C)C2=O [listing 1 of 2 here] | 1.5 | 2.21 |  | 
CC(C)=CCC[C@]1(C)[C@@H](CC=C(C)C)C[C@]2(CC=C(C)C)C(=O)C(CC=C(C)C)=C(O)[C@@]1(C(=O)C(C)C)C2=O [listing 2 of 2 here] |  |  | 2.1 | 3.29
CC(=O)C1=C(O)C=C2Oc3c(C(C)=O)c(O)c(C)c(O)c3[C@@]2(C)C1=O [(+)-USNIC ACID] | 15.3 |  |  | 
CC(C)=CCC[C@]1(C)[C@@H](CC=C(C)C)C[C@@]2(CC=C(C)C)C(=O)[C@]1(C(=O)C(C)C)C(=O)C1=C2OC(C)(C)C=C1 [DEHYDROHYPERFORIN] | 8.6 |  |  | 
CC(C)=CCC[C@]1(C)[C@@H](CC=C(C)C)C[C@]23CC(C(C)(C)O)OC2=C(CC=C(C)C)C(=O)[C@@]1(C(=O)C(C)C)C3=O (stereo not given in full) [FUROHYPERFORIN] | 1.7 | 16.1 |  | 
CC(C)=CCC[C@]1(C)[C@@H](CC=C(C)C)C[C@]2(CC=C(C)C)C(=O)[C@@]3(CC=C(C)C)O[C@@]2(O)[C@]1(C(=O)C(C)C)C3=O [HYPERFORINHEMIACETAL] | 2 | 16.1 |  | 
CC(C)=CCC[C@]1(C)[C@@H](CC=C(C)C)C[C@@]2(CC=C(C)C)C(=O)[C@]1(C(=O)C(C)C)C(=O)C(CC=C(C)C)=C2OC(=O)c1cccnc1 [HYPERFORINNICOTINATE] | 4.8 | 23.9 |  | 
COc1cc(C(=O)OC2=C(CC=C(C)C)C(=O)[C@@]3(C(=O)C(C)C)C(=O)[C@]2(CC=C(C)C)C[C@H](CC=C(C)C)[C@@]3(C)CCC=C(C)C)cc(OC)c1OC [HYPERFORINTRIMETHOXYBENZOATE] | > 27 |  |  | 
CC(C)CCC[C@]1(C)[C@@H](CCC(C)C)C[C@@]2(CCC(C)C)C(=O)[C@]1(C(=O)C(C)C)C(=O)C(CCC(C)C)=C2O [OCTAHYDROHYPERFORIN DICYCLOHEXYLAMMONIUM SALT] |  |  | 1.4 | 3.12
CC(C)CCC[C@]1(C)[C@@H](CCC(C)C)C[C@@]2(CCC(C)C)C(=O)[C@]1(C(=O)C(C)C)C(=O)C(CCC(C)C)=C2O [OCTAHYDROHYPERFORIN] | 2.7 | 2.12 |  | 
